Laboratory results as given in PubChem BioAssay AID1259408 (Genetic Toxicology Data Bank (GENE-TOX), 2018).
Active and inactive are the calls of the source. No rule for the calls is given here.

System: GENE-TOX genotoxicity assays, various organisms and cells
Assay: GENE-TOX mutagenicity studies
Details: for call: Assay Type: In vivo carcinogenicity studies
[1] = Species/Cell Type: Escherichia coli polA (W3119 vs P3478), Assay Type: Rec-assay, DNA effects (bacterial DNA repair), Assay Code: RE1T, Evaluation Type: Evaluation A (Pre-1980)
[2] = Species/Cell Type: Saccharomyces cerevisiae, Assay Type: Mitotic recombination or gene conversion, Assay Code: YEH-, Evaluation Type: Evaluation A (Pre-1980)
[3] = Species/Cell Type: Salmonella typhimurium (one or more of the five standard strains: TA98, TA100, TA1535, TA1537, and TA1538), Assay Type: Histidine reverse gene mutation, Ames assay, Assay Code: SALT, Evaluation Type: Evaluation A (Pre-1980)
[4] = Species/Cell Type: Salmonella typhimurium, Assay Type: Forward and reverse gene mutation, host-mediated assay, Assay Code: HMA-, Evaluation Type: Evaluation A (Pre-1980)
[5] = Species/Cell Type: Syrian hamster embryo (SHE) cells, Assay Type: Cell transformation, clonal assay, Assay Code: CTC+, Evaluation Type: Evaluation A (Pre-1980)
[6] = Species/Cell Type: Drosophila melanogaster, Assay Type: Sex-linked recessive lethal gene mutation, Assay Code: SRLT, Evaluation Type: Evaluation A (Pre-1980)
[7] = Species/Cell Type: Neurospora crassa, Assay Type: Reverse gene mutation, Assay Code: NER+, Evaluation Type: Evaluation A (Pre-1980)
[8] = Species/Cell Type: Salmonella typhimurium (one or more of the five standard strains: TA98, TA100, TA1535, TA1537, and TA1538), Assay Type: Histidine reverse gene mutation, Ames assay, Assay Code: SAL+*, Activation: With metabolic activation, Evaluation Type: Evaluation A (Pre-1980)
[9] = Species/Cell Type: Mammalian polychromatic erythrocytes, Assay Type: Micronucleus test, chromosome aberrations, Assay Code: MNTT, Evaluation Type: Evaluation B (Post-1980)
[10] = Species/Cell Type: Human, Sex: Male, Assay Type: Sperm morphology, Assay Code: SPH+, Evaluation Type: Evaluation A (Pre-1980)

CCOC(=O)COc1ccc(Br)cc1CSC(=N)N
mutagenic call (Species/Cell Type: Saccharomyces cerevisiae, Assay Type: Reverse gene mutation, Assay Code: YERT, Evaluation Type: Evaluation A (Pre-1980)): no conclusion

COc1cc2c(c3oc(=O)c4c(c13)CCC4=O)[C@@H]1CCO[C@@H]1O2
mutagenic call (Species/Cell Type: Bacillus subtilis (H17 vs M45), Assay Type: Rec-assay, spot test, DNA effects (bacterial DNA repair), Assay Code: REWT, Evaluation Type: Evaluation A (Pre-1980)): no conclusion | mutagenic call (Species/Cell Type: Chinese hamster lung (V79) cells, Assay Type: Forward gene mutation at the HPRT or ouabain locus, Assay Code: V79+, Evaluation Type: Evaluation A (Pre-1980)): active; positive | mutagenic call (Species/Cell Type: Escherichia coli polA (W3110 vs P3478), Assay Type: Rec-assay, DNA effects (bacterial DNA repair), Assay Code: RE2-, Evaluation Type: Evaluation A (Pre-1980)): inactive; negative | mutagenic call [1]: no conclusion | mutagenic call (Species/Cell Type: Human diploid fibroblasts, Assay Type: Unscheduled DNA synthesis (UDS) in vitro, DNA effects, Assay Code: UDH-*, Activation: With metabolic activation, Evaluation Type: Evaluation A (Pre-1980)): inactive; negative | call (Species/Cell Type: Nonhuman, Assay Code: CCG+L, Evaluation Type: Evaluation A (Pre-1980)): active; positive | mutagenic call (Species/Cell Type: Nonhuman, Assay Type: Sister-chromatid exchange (SCE) in vitro, Assay Code: SC2+D*, Activation: With metabolic activation, Dose Response: With dose response, Evaluation Type: Evaluation B (Post-1980)): active; positive | mutagenic call (Species/Cell Type: Rat primary hepatocytes, Assay Type: Unscheduled DNA synthesis (UDS) in vitro, DNA effects, Assay Code: UDP-, Evaluation Type: Evaluation A (Pre-1980)): inactive; negative | mutagenic call [2]: inactive; negative | mutagenic call [3]: no conclusion | mutagenic call [4]: inactive; negative | mutagenic call [5]: active; positive

CS(=O)(=O)O
mutagenic call [6]: no conclusion | mutagenic call [1]: no conclusion

CN(C)c1ccc(C(=C2C=CC(=[N+](C)C)C=C2)c2ccc(N(C)C)cc2)cc1
mutagenic call (Species/Cell Type: Bacillus subtilis (H17 vs M45), Assay Type: Rec-assay, spot test, DNA effects (bacterial DNA repair), Assay Code: REW+, Evaluation Type: Evaluation A (Pre-1980)): active; positive | mutagenic call (Species/Cell Type: Bacillus subtilis (H17 vs M45T), Assay Type: Rec-assay, spot test, DNA effects (bacterial DNA repair), Assay Code: REXT, Evaluation Type: Evaluation A (Pre-1980)): no conclusion | mutagenic call [6]: no conclusion | mutagenic call [2]: inactive; negative | mutagenic call [3]: no conclusion

BrCC1CO1 (stereo unspecified)
mutagenic call [7]: active; positive

Nc1cccc2cc3ccccc3cc12
mutagenic call [1]: no conclusion | mutagenic call (Species/Cell Type: Fischer rat embryo (RLV/1706) cells, Assay Type: Cell transformation, viral enhanced, Assay Code: CTR-, Evaluation Type: Evaluation A (Pre-1980)): inactive; negative | mutagenic call (Species/Cell Type: Saccharomyces cerevisiae, Assay Type: Mitotic recombination or gene conversion, Assay Code: YEH+/-*, Activation: With metabolic activation, Evaluation Type: Evaluation A (Pre-1980)): inactive; positive without activation, negative with activation | mutagenic call [8]: active; positive | mutagenic call [4]: inactive; negative | mutagenic call (Species/Cell Type: Syrian hamster embryo (SHE) cells, Assay Type: Cell transformation, clonal assay, Assay Code: CTC-, Evaluation Type: Evaluation A (Pre-1980)): inactive; negative

O[C@@H]1c2cccc3ccc4cc5ccccc5c(c4c23)[C@@H]1O
mutagenic call (Species/Cell Type: Chinese hamster lung (V79) cells, Assay Type: Forward gene mutation at the HPRT or ouabain locus, Assay Code: V79-, Evaluation Type: Evaluation A (Pre-1980)): inactive; negative | mutagenic call [3]: no conclusion

O=P(O)(O)Oc1c(Br)cc(Br)cc1-c1cc(Br)cc(Br)c1O
mutagenic call [9]: no conclusion

Oc1ccc(O)cc1
mutagenic call (Species/Cell Type: Allium cepa, Assay Type: Chromosome aberrations, Assay Code: ALC+, Evaluation Type: Evaluation A (Pre-1980)): active; positive | mutagenic call (Species/Cell Type: Human lymphocytes, Assay Type: Sister-chromatid exchange (SCE) in vitro, Assay Code: SCL+D, Dose Response: With dose response, Evaluation Type: Evaluation B (Post-1980)): active; positive | mutagenic call (Species/Cell Type: Human, Assay Type: Sister-chromatid exchange (SCE) in vitro, Assay Code: SC1+D, Dose Response: With dose response, Evaluation Type: Evaluation B (Post-1980)): active; positive | mutagenic call (Species/Cell Type: Mammalian polychromatic erythrocytes, Assay Type: Micronucleus test, chromosome aberrations, Assay Code: MNT+, Evaluation Type: Evaluation B (Post-1980)): active; positive

C[C@@H]1O[C@@H](OC[C@H]2O[C@@H](Oc3c(-c4ccc(O)c(O)c4)oc4cc(O)cc(O)c4c3=O)[C@H](O)[C@@H](O)[C@@H]2O)[C@H](O)[C@H](O)[C@H]1O
mutagenic call [9]: no conclusion

CNP(=O)(N1CC1)N1CC1
mutagenic call (Species/Cell Type: Drosophila melanogaster, Assay Type: Sex-linked recessive lethal gene mutation, Assay Code: SRL+, Evaluation Type: Evaluation A (Pre-1980)): active; positive

CCC1CO1 (stereo unspecified)
mutagenic call (Species/Cell Type: Escherichia coli polA (W3110 vs P3478), Assay Type: Rec-assay, DNA effects (bacterial DNA repair), Assay Code: RE2+, Evaluation Type: Evaluation A (Pre-1980)): active; positive | mutagenic call (Species/Cell Type: Escherichia coli polA (W3119 vs P3478), Assay Type: Rec-assay, DNA effects (bacterial DNA repair), Assay Code: RE1+, Evaluation Type: Evaluation A (Pre-1980)): active; positive | mutagenic call (Species/Cell Type: Fischer rat embryo (RLV/1706) cells, Assay Type: Cell transformation, viral enhanced, Assay Code: CTR+, Evaluation Type: Evaluation A (Pre-1980)): active; positive | mutagenic call (Species/Cell Type: Mouse (BALB/c-3T3) cells, Assay Type: Cell transformation, Assay Code: CTB-, Evaluation Type: Evaluation A (Pre-1980)): inactive; negative | mutagenic call [7]: active; positive | call (Species/Cell Type: Nonhuman, Assay Code: CCGT, Evaluation Type: Evaluation A (Pre-1980)): no conclusion | mutagenic call (Species/Cell Type: Saccharomyces cerevisiae, Assay Type: Mitotic recombination or gene conversion, Assay Code: YEH+, Evaluation Type: Evaluation A (Pre-1980)): active; positive | mutagenic call (Species/Cell Type: Salmonella typhimurium (one or more of the five standard strains: TA98, TA100, TA1535, TA1537, and TA1538), Assay Type: Histidine reverse gene mutation, Ames assay, Assay Code: SAL+, Evaluation Type: Evaluation A (Pre-1980)): active; positive | mutagenic call [5]: active; positive

CCN(Cc1ccc(CN(CC)C(=O)C(Cl)Cl)cc1)C(=O)C(Cl)Cl
mutagenic call [10]: active; positive

CC(C)NCC(Cl)c1ccc2ccccc2c1 (stereo unspecified)
mutagenic call (Species/Cell Type: Mouse, Sex: Male, Assay Type: Sperm morphology, Assay Code: SPI+, Evaluation Type: Evaluation A (Pre-1980)): active; positive

ONc1ncnc2nc[nH]c12
mutagenic call (Species/Cell Type: Neurospora crassa, Assay Type: Forward gene mutation, Assay Code: NEF+, Evaluation Type: Evaluation A (Pre-1980)): active; positive

CN(N=O)c1ccccc1
mutagenic call (Species/Cell Type: Chinese hamster lung (V79) cells, Assay Type: Forward gene mutation at the HPRT or ouabain locus, Assay Code: V79-*, Activation: With metabolic activation, Evaluation Type: Evaluation A (Pre-1980)): inactive; negative | mutagenic call (Species/Cell Type: Vicia faba, Assay Type: Chromosome aberrations, Assay Code: VIC+, Evaluation Type: Evaluation A (Pre-1980)): active; positive

CCCCCCC(=O)O[C@H]1CC[C@H]2[C@@H]3CCC4=CC(=O)CC[C@]4(C)[C@H]3CC[C@]12C
mutagenic call [10]: active; positive | call (Species/Cell Type: Nonhuman, Assay Code: CCG+, Evaluation Type: Evaluation A (Pre-1980)): active; positive

C=CCOc1nc2c(c(=O)n(C)c(=O)n2C)n1C
mutagenic call (Species/Cell Type: Allium cepa, Assay Type: Chromosome aberrations, Assay Code: ALC+D, Dose Response: With dose response, Evaluation Type: Evaluation A (Pre-1980)): active; positive

CC[C@@]1(O)C[C@H](O[C@H]2C[C@H](N)[C@H](O)[C@H](C)O2)c2c(cc3c(c2O)C(=O)c2c(O)cccc2C3=O)[C@H]1C(=O)OC
mutagenic call [8]: active; positive

CC(=O)Nc1ccc(CC(=O)c2ccccc2)cc1
mutagenic call [3]: no conclusion

CCCCN1CC1
mutagenic call (Species/Cell Type: Schizosaccharomyces pombe, Assay Type: Reverse gene mutation, Assay Code: YEZ+, Evaluation Type: Evaluation A (Pre-1980)): active; positive
